In ChEMBL document CHEMBL5244218, “Quinolone derivatives and their activities against methicillin-resistant Staphylococcus aureus (MRSA)” (Eur J Med Chem, 2018):
In brackets after ≈: the same amount, converted by molar mass.

Columns and labels:
[1] = test system: Staphylococcus aureus; assay: Antimicrobial activity against methicillin-resistant Staphylococcus aureus by agar dilution method; type: functional
[2] = test system: Staphylococcus aureus; assay: Potency index, ratio of norfloxacin MIC to test compound MIC for antimicrobial activity against methicillin-resistant Staphylococcus aureus clinical isolate 1; type: functional
[3] = test system: Staphylococcus aureus; assay: Antimicrobial activity against methicillin-resistant Staphylococcus aureus clinical isolate 2 measured after 18 hrs by agar dilution method; type: functional
[4] = test system: Staphylococcus aureus; assay: Potency index, ratio of norfloxacin MIC to test compound MIC for antimicrobial activity against methicillin-resistant Staphylococcus aureus clinical isolate 2; type: functional
[5] = test system: Staphylococcus aureus; assay: Potency index, ratio of ciprofloxacin MIC to test compound MIC for antimicrobial activity against methicillin-resistant Staphylococcus aureus clinical isolate 2; type: functional
[6] = test system: Staphylococcus aureus; assay: Potency index, ratio of ciprofloxacin MIC to test compound MIC for antimicrobial activity against methicillin-resistant Staphylococcus aureus clinical isolate 1; type: functional
[7] = test system: Staphylococcus aureus; assay: Antimicrobial activity against methicillin-resistant Staphylococcus aureus clinical isolate 1 measured after 18 hrs by agar dilution method; type: functional
[8] = test system: Staphylococcus aureus; assay: Antimicrobial activity against methicillin-resistant Staphylococcus aureus MR101 Mu50 measured after 18 hrs by microplate dilution method; type: functional
[9] = test system: Staphylococcus aureus; assay: Antibacterial activity against methicillin-resistant Staphylococcus aureus infected in mouse model assessed as reduction in log10CFU in lungs (reference value: 8.47 log10CFU); type: functional
[10] = test system: Staphylococcus aureus; assay: Antibacterial activity against methicillin-resistant Staphylococcus aureus infected in mouse model assessed as increase in survival rate relative to control; type: functional
[11] = test system: Staphylococcus aureus; assay: Antimicrobial activity against methicillin-resistant Staphylococcus aureus assessed as inhibition of microbial growth at 15.63 ug/ml relative to control; type: functional; set-up: scale not given: the % may be the effect or the level left; settings: dose 15.63 µg/ml
[12] = Permeability coefficient of compound; type: ADME; settings: not told; read-out: Kp (converted)
[13] = test system: Staphylococcus aureus; assay: Antibacterial activity against methicillin-resistant Staphylococcus aureus; type: functional
[14] = test system: Staphylococcus aureus; assay: Potency index, ratio of norfloxacin MIC to test compound MIC for antimicrobial activity against methicillin-resistant Staphylococcus aureus; type: functional
[15] = test system: Staphylococcus aureus; assay: Antimicrobial activity against methicillin-resistant Staphylococcus aureus assessed as inhibition of bacterial growth by agar dilution method; type: functional
[16] = Cytotoxicity against human HEK293 cells incubated for 72 hrs by MTT assay; type: toxicity, cell-based
[17] = test system: Staphylococcus aureus; assay: Antimicrobial activity against community acquired methicillin-resistant Staphylococcus aureus incubated for 24 hrs by CLSI protocol based method; type: functional
[18] = test system: Staphylococcus aureus; assay: Antimicrobial activity against hospital acquired methicillin-resistant Staphylococcus aureus incubated for 24 hrs by CLSI protocol based method; type: functional
[19] = test system: Staphylococcus aureus; assay: Antimicrobial activity against methicillin-resistant Staphylococcus aureus assessed as inhibition of microbial growth; type: functional
[20] = test system: Staphylococcus aureus; assay: Bactericidal activity against methicillin-resistant Staphylococcus aureus assessed as inhibition of microbial growth; type: functional
[21] = test system: Staphylococcus aureus; assay: Potency index, ratio of ciprofloxacin MIC to test compound MIC for antimicrobial activity against methicillin-resistant Staphylococcus aureus; type: functional
[22] = test system: Staphylococcus aureus; assay: Antimicrobial activity against methicillin-resistant Staphylococcus aureus; type: functional, organism-based
[23] = Cytotoxicity against African green monkey Vero cells; type: toxicity, cell-based; settings: chlorocebus sabaeus
[24] = test system: Staphylococcus aureus; assay: Antimicrobial activity against fluoroquinolone-resistant Staphylococcus aureus assessed as inhibition of bacterial growth at 0.5 ug/ml relative to control; type: functional; set-up: scale not given: the % may be the effect or the level left; settings: dose 0.5 µg/ml
[25] = test system: Staphylococcus aureus; assay: Antimicrobial activity against methicillin-resistant Staphylococcus aureus assessed as inhibition of bacterial growth at 0.5 ug/ml relative to control; type: functional; set-up: scale not given: the % may be the effect or the level left; settings: dose 0.5 µg/ml
[26] = test system: Staphylococcus aureus; assay: Antimicrobial activity against methicillin-resistant Staphylococcus aureus Mi339 by microbroth dilution method; type: functional
[27] = test system: Staphylococcus aureus; assay: Antimicrobial activity against methicillin-resistant Staphylococcus aureus Mi300 by microbroth dilution method; type: functional
[28] = test system: Staphylococcus aureus; assay: Antibacterial activity against methicillin-resistant Staphylococcus aureus assessed as inhibition of microbial growth; type: functional
[29] = test system: Staphylococcus aureus; assay: Antimicrobial activity against methicillin-resistant Staphylococcus aureus incubated for 18 hrs by Alamar blue staining based analysis; type: functional

CCO/N=C1\CCN(c2nc3c(cc2F)c(=O)c(C(=O)O)cn3C2CC2)CC1(C)CNC (centres undefined)
MIC [1]: 64 µg/mL (≈ 144 µM)

CCO/N=C1\CCN(c2c(F)cc3c(=O)c(C(=O)O)cn(C4CC4)c3c2F)CC1(C)CNC (centres undefined)
MIC [1]: 64 µg/mL (≈ 138 µM)

NO/N=C(/CN1CCN(c2cc3c(cc2F)c(=O)c(C(=O)O)cn3C2CC2)CC1)c1cccs1
Ratio [2]: 4 | MIC [3]: 0.19 µg/mL (≈ 0.391 µM) | Ratio [4]: 4 | Ratio [5]: 2 | Ratio [6]: 2 | MIC [7]: 0.19 µg/mL (≈ 0.391 µM)

O=C(O)c1cn(C2CC2)c2cc(N3CCN(C/C(=N/O)c4cccs4)CC3)c(F)cc2c1=O
Ratio [2]: 4 | MIC [3]: 0.19 µg/mL (≈ 0.404 µM) | Ratio [4]: 4 | Ratio [5]: 2 | Ratio [6]: 2 | MIC [7]: 0.19 µg/mL (≈ 0.404 µM)

O=C(O)c1cn(C2CC2)c2cc(N3CCN(C/C(=N/O)c4ccco4)CC3)c(F)cc2c1=O
Ratio [2]: 4 | MIC [3]: 0.19 µg/mL (≈ 0.418 µM) | Ratio [4]: 4 | Ratio [5]: 2 | Ratio [6]: 2 | MIC [7]: 0.19 µg/mL (≈ 0.418 µM)

CC(=O)N[C@@H]1[C@H](Oc2c3cc4cc2Oc2ccc(cc2Cl)[C@@H](O[C@@H]2O[C@@H](CO)[C@@H](O)[C@H](O)[C@@H]2NC(C)=O)[C@@H]2NC(=O)[C@H](NC(=O)[C@@H]4NC(=O)[C@H]4NC(=O)[C@@H](Cc5ccc(c(Cl)c5)O3)NC(=O)[C@H](N)c3ccc(O)c(c3)Oc3cc(O)cc4c3)c3ccc(O)c(c3)-c3c(O[C@H]4O[C@H](CO)[C@@H](O)[C@@H](O)[C@@H]4O)cc(O)cc3[C@@H](C(=O)O)NC2=O)O[C@@H](CO)[C@@H](O)[C@@H]1O
MIC [8]: 0.5 µg/mL (≈ 0.283 µM) | Activity [9]: 7.36 log10CFU | Activity [10]: 45%

CCOC(=O)c1cn(C2CC2)c2cc(N3CCNCC3)ccc2c1=O
Activity [11]: 80% | Papp [12]: 0.106 ×10⁻⁶ cm/s

O=C(O)c1cn(CC(O)Cn2cncn2)c2cc(C(F)(F)F)ccc2c1=O (centres undefined)
MIC [13]: 1 µg/mL (≈ 2.62 µM) | Ratio [14]: 8

C[C@H]1CCc2c(N3CCC(O)CC3)c(F)cc3c(=O)c(C(=O)O)cn1c23.N=C(N)NCCC[C@H](N)C(=O)O.O.O.O.O
MIC [15]: 1 µg/mL

COc1ccc(Cn2c(-c3ccccc3O)nn(CN3CCN(c4c(F)cc5c(=O)c(C(=O)O)cn(C6CC6)c5c4Cl)CC3)c2=S)cc1
EC50 at 72 h [16]: 50.5 µM

CCCOC(=O)c1cn(C2CC2)c2cc(N3CCNCC3)ccc2c1=O
Activity [11]: 80% | Papp [12]: 0.195 ×10⁻⁶ cm/s

CN[C@H](CC(C)C)C(=O)N[C@H]1C(=O)N[C@@H](CC(N)=O)C(=O)N[C@H]2C(=O)N[C@H]3C(=O)N[C@H](C(=O)N[C@H](C(=O)O)c4cc(O)cc(O)c4-c4cc3ccc4O)[C@H](O)c3ccc(c(Cl)c3)Oc3cc2cc(c3O[C@@H]2O[C@H](CO)[C@@H](O)[C@H](O)[C@H]2O[C@H]2C[C@](C)(N)[C@H](O)[C@H](C)O2)Oc2ccc(cc2Cl)[C@H]1O [VANCOMYCIN]
Activity [9]: 7.99 log10CFU | Activity [10]: 45%

Cc1c(N2CC(NC(C)C)C2)c(F)cc2c(=O)c(C(=O)O)cn(-c3nc(N)c(F)cc3F)c12
MIC90 [17]: 0.06 µg/mL (≈ 0.13 µM) | MIC90 [18]: 0.06 µg/mL (≈ 0.13 µM)

CCn1cc(C(=O)O)c(=O)c2cc(F)c(N3CCNCC3)cc21 [NORFLOXACIN]
MIC [3]: 0.78 µg/mL (≈ 2.44 µM) | MIC [19]: < 0.016 µg/mL | MBC [20]: 4 µg/mL | MIC [7]: 0.78 µg/mL (≈ 2.44 µM) | MIC [13]: 8 µg/mL (≈ 25.1 µM)

CCOC(=O)c1cn(CC(O)Cn2cncn2)c2c(Cl)cc(Cl)cc2c1=O (centres undefined)
MIC [13]: 1 µg/mL (≈ 2.43 µM) | Ratio [14]: 8

O=C(O)c1cn(C2CC2)c2c(c1=O)C=C(F)C1N=NC(c3ccccc3F)=CN21 (centres undefined)
Ratio [21]: 32 | MIC [19]: 0.25 µg/mL

CO/N=C1\CCN(c2nc3c(cc2F)c(=O)c(C(=O)O)cn3C2CC2)CC1(C)CN (centres undefined)
MIC [22]: 8 µg/mL | CC50 [23]: 177 µg/mL (≈ 423 µM)

O=C(O)c1cn(C2CC2)c2c(Cl)c(N3CCN(Cn4nc(-c5ccccc5O)n(Cc5ccc(F)cc5)c4=S)CC3)c(F)cc2c1=O
EC50 at 72 h [16]: 50.5 µM

COC(=O)c1cn(C2CC2)c2cc(N3CCNCC3)ccc2c1=O
Activity [11]: 80% | Papp [12]: 0.00797 ×10⁻⁶ cm/s

O=C(O)c1cn(C2CC2)c2cc(N3CCN(Cc4cccc(CN5CCN(c6ncc7c(=O)c(C(=O)O)cn(C8CC8)c7n6)CC5)c4)CC3)ccc2c1=O
Ratio [21]: >16 | MIC [22]: < 0.03 µg/mL

COc1c(N2CC[C@@H](C3(C)CC3)C2)c(F)cc2c(=O)c(C(=O)O)cn([C@@H]3C[C@@H]3F)c12
Activity [24]: 90% | Activity [25]: 90%

Cc1c(N2C[C@@H](F)[C@@H](C3(C)CC3)C2)c(F)c(N)c2c(=O)c(C(=O)O)cn([C@@H]3C[C@@H]3F)c12
MIC [8]: 0.125 µg/mL (≈ 0.287 µM) | Activity [9]: 6.33 log10CFU | Activity [10]: 90%

O=C(O)c1cn(CC(O)Cn2cncn2)c2ccc(F)cc2c1=O (centres undefined)
MIC [13]: 1 µg/mL (≈ 3.01 µM) | Ratio [14]: 8

C[C@@H](O)[C@H]1C(=O)N2C(C(=O)O)=C(COC(=O)N3CCN(c4cc5c(cc4F)c(=O)c(C(=O)O)cn5C4CC4)CC3)S[C@H]12
MIC [26]: 0.06 µg/mL (≈ 0.0996 µM) | MIC [27]: 0.06 µg/mL (≈ 0.0996 µM)

O=C(O)c1cn(C2CC2)c2c(c1=O)C=C(F)C1N=NC(c3ccc(F)cc3)=CN21 (centres undefined)
Ratio [21]: 32 | MIC [19]: 0.25 µg/mL

O=C(O)c1cn(C2CC2)c2cc(N3CCNCC3)c(F)cc2c1=O [CIPROFLOXACIN]
MIC [28]: 0.06 µg/mL | MIC [22]: 0.5 µg/mL | MIC [29]: 64 µg/mL (≈ 193 µM) | MIC [26]: 32 µg/mL (≈ 96.6 µM) | MBC [20]: 0.031 µg/mL | MIC [27]: 0.25 µg/mL (≈ 0.754 µM)

O=C(O)c1cn(C2CC2)c2c(Cl)c(N3CCN(Cn4nc(-c5ccccc5O)n(-c5cc(Cl)cc(Cl)c5)c4=S)CC3)c(F)cc2c1=O
EC50 at 72 h [16]: 50.5 µM

CCn1cc(C(=O)O)c(=O)c2cc(F)c(N3CCN(C/C(=N/O)c4ccc(OC)cc4)CC3)c(F)c21
MIC [22]: 0.2 µM | Ratio [14]: 24

C[C@@H](O)[C@H]1C(=O)N2C(C(=O)O)=C(COC(=O)N[C@H]3CCC(c4c(F)cc5c(=O)c(C(=O)O)cn(C6CC6)c5c4F)C3)S[C@H]12 (some centres undefined)
MIC [26]: 4 µg/mL (≈ 6.46 µM) | MIC [27]: ≤ 0.06 µg/mL

CNCC1(C)CN(c2nc3c(cc2F)c(=O)c(C(=O)O)cn3C2CC2)CC/C1=N\OC (centres undefined)
MIC [1]: 64 µg/mL (≈ 148 µM)
